From ChEMBL document CHEMBL3046779, “Synthesis and anti-juvenile hormone activity of ethyl 4-[(6-substituted 2,2-dimethyl-2H-chromen-7-yl)methoxy]benzoates” (2010)

Legend:
Assay type in all cases: functional
Bombyx mori [1] = assay: Antijuvenile hormone activity against third-instar larvae of Bombyx mori assessed as precocious metamorphosis-inducing activity at 1 ug/larva
Bombyx mori [2] = assay: Antijuvenile hormone activity against third-instar larvae of Bombyx mori assessed as precocious metamorphosis-inducing activity at 10 ug/larva
Bombyx mori [3] = assay: Antijuvenile hormone activity against third-instar larvae of Bombyx mori assessed as precocious metamorphosis-inducing activity at 40 ug/larva
Bombyx mori [4] = assay: Antijuvenile hormone activity against allatectomized third-instar larvae of Bombyx mori assessed as number of larvae transformed into fifth instar larvae at 1 ug/larva (reference value: 0)
Bombyx mori [5] = assay: Antijuvenile hormone activity against allatectomized third-instar larvae of Bombyx mori assessed as number of larvae transformed into precocious pupa at 1 ug/larva (reference value: 10)
Bombyx mori [6] = assay: Antijuvenile hormone activity against allatectomized third-instar larvae of Bombyx mori assessed as number of larvae transformed into larval pupa intermediate at 1 ug/larva (reference value: 0)
Bombyx mori [7] = assay: Antijuvenile hormone activity against allatectomized third-instar larvae of Bombyx mori assessed as number of larvae transformed into fifth-instar larvae at 40 ug/larva (reference value: 0)
Bombyx mori [8] = assay: Antijuvenile hormone activity against allatectomized third-instar larvae of Bombyx mori assessed as number of larvae transformed into precocious pupa at 40 ug/larva (reference value: 10)
Bombyx mori [9] = assay: Antijuvenile hormone activity against allatectomized third-instar larvae of Bombyx mori assessed as number of larvae transformed into larval pupa intermediate at 40 ug/larva (reference value: 0)

CCOC(=O)c1ccc(OCc2cc3c(cc2OCC)C=CC(C)(C)O3)cc1
Activity (Bombyx mori [1]): 0% | Activity (Bombyx mori [2]): 5% | Activity (Bombyx mori [3]): 20%

COC(C)(C)CCC[C@H](C)C/C=C/C(C)=C/C(=O)OC(C)C [METHOPRENE]
Activity (Bombyx mori [4]): 10 | Activity (Bombyx mori [5]): 0 | Activity (Bombyx mori [6]): 0

CCOC(=O)c1ccc(OCc2cc3c(cc2OC)C=CC(C)(C)O3)cc1
Activity (Bombyx mori [4]): 2 | Activity (Bombyx mori [7]): 10 | Activity (Bombyx mori [1]): 75% | Activity (Bombyx mori [2]): 95% | Activity (Bombyx mori [3]): 100% | Activity (Bombyx mori [5]): 2 | Activity (Bombyx mori [8]): 0 | Activity (Bombyx mori [6]): 6 | Activity (Bombyx mori [9]): 0

CCOC(=O)c1ccc(OCc2ccc3c(c2)OC(C)(C)C=C3)cc1
Activity (Bombyx mori [1]): 0% | Activity (Bombyx mori [2]): 20% | Activity (Bombyx mori [3]): 65%

CCOC(=O)c1ccc(OCc2cc3c(cc2OC)OCCO3)cc1
Activity (Bombyx mori [1]): 10% | Activity (Bombyx mori [2]): 58% | Activity (Bombyx mori [3]): 79%

CCCOc1cc2c(cc1COc1ccc(C(=O)OCC)cc1)OC(C)(C)C=C2
Activity (Bombyx mori [1]): 0% | Activity (Bombyx mori [2]): 0% | Activity (Bombyx mori [3]): 16%

CCOC(=O)c1ccc(OCc2cc(OC)c(OC)cc2OC)cc1
Activity (Bombyx mori [1]): 0% | Activity (Bombyx mori [2]): 0% | Activity (Bombyx mori [3]): 0%

CCOC(=O)c1ccc(OCc2cc3c(cc2OC)CCCC3)cc1
Activity (Bombyx mori [1]): 0% | Activity (Bombyx mori [2]): 10% | Activity (Bombyx mori [3]): 30%

CCOC(=O)c1ccc(OCc2cc3c(cc2OC)CCC(C)(C)O3)cc1
Activity (Bombyx mori [7]): 10 | Activity (Bombyx mori [1]): 46% | Activity (Bombyx mori [2]): 94% | Activity (Bombyx mori [3]): 87% | Activity (Bombyx mori [8]): 0 | Activity (Bombyx mori [9]): 0

CCOC(=O)c1ccc(OCc2cc3c(cc2OCc2ccccc2)C=CC(C)(C)O3)cc1
Activity (Bombyx mori [1]): 40% | Activity (Bombyx mori [2]): 100% | Activity (Bombyx mori [3]): 100%
